Experiments:
Assay type in all cases: cell-based
[1] = system: E. coli isogenic strain aph(3′)-Ia; experiment: MIC broth microdilution, E. coli isogenic strain aph(3′)-Ia; details: Table 2; aph(3′)-Ia has activity at both the 3′-hydroxy and 5″-hydroxy positions
Procedure: (§1) Minimum inhibitory concentrations for the example compounds herein are determined by the broth microdilution method in accordance with the Clinical and Laboratory Standards Institute (CLSI) guidelines. In brief, organism suspensions are adjusted to a 0.5 McFarland standard to yield a final inoculum between 3×10^5 and 7×10^5 colony-forming units (CFU)/mL. Compound dilutions and inocula are made in sterile, cation adjusted Mueller-Hinton Broth (Beckton Dickinson). The inoculum is prepared by suspension of a colony from an agar plate that is prepared the previous day. Bacteria are suspended in sterile saline and added to each assay plate to obtain a final concentration of 5×10^5 CFU/mL. An inoculum volume of 100 μL is added to wells containing 100 μL of broth with 2-fold serial dilutions of the compound. All inoculated microdilution trays are incubated in ambient air at 35° C. for 18-24 hours. Following incubation, the lowest concentration of the compound that prevents visible growth (OD 600 nm<0.05) is recorded as the MIC. […] Performance of the assay is monitored by the use of laboratory quality-control strains and a compound with a defined MIC spectrum (such as levofloxacin), in accordance with CLSI guidelines. Compounds are tested against multiple microbiologic panels. Panels include: 1) a multi-species primary screening panel that includes multiple defined AG-R mechanisms; 2) a panel of isogenic strains carrying different common mechanisms of AG-R that allows characterization of the SAR for AMEs, RMTs, and entry and efflux resistance mechanisms; and 3) panels of recent clinical isolates selected from Phase 3 studies and ongoing global surveillance.

[2] = system: E. coli isogenic strain nmpA; experiment: MIC broth microdilution, E. coli isogenic strain nmpA; details: Table 2
Procedure: as §1

[3] = system: E. coli isogenic strain aph(3′)-II; experiment: MIC broth microdilution, E. coli isogenic strain aph(3′)-II; details: Table 2
Procedure: as §1

[4] = system: E. coli isogenic strain aac(6′)-Ib; experiment: MIC broth microdilution, E. coli isogenic strain aac(6′)-Ib; details: Table 2
Procedure: as §1

[5] = system: E. coli isogenic strain empty vector; experiment: MIC broth microdilution, E. coli isogenic strain, empty vector; details: Table 2
Procedure: as §1

[6] = system: E. coli isogenic strain armA; experiment: MIC broth microdilution, E. coli isogenic strain armA; details: Table 2
Procedure: as §1

[7] = system: E. coli isogenic strain ant(4′)-Ia; experiment: MIC broth microdilution, E. coli isogenic strain ant(4′)-Ia; details: Table 2
Procedure: as §1

[8] = system: E. coli Δefflux (tolC efflux pump knocked-out); experiment: MIC broth microdilution, E. coli Δefflux strain (tolC knocked out); details: Table 2
Procedure: as §1

E. coli efflux parent = experiment: MIC broth microdilution, E. coli efflux parent strain; details: Table 2; geometric mean
Procedure: as §1

E. coli ATCC 25922 = experiment: Minimum inhibitory concentration (broth microdilution, CLSI), E. coli ATCC 25922; details: Table 2; geometric mean
Procedure: as §1

Row | Structure (SMILES) | Geometric Mean MIC values, E. coli isogenic strains, aph(3′)-Ia [1] [µg/mL] | Geometric Mean MIC values, E. coli isogenic strains, nmpA [2] [µg/mL] | Geometric Mean MIC values, E. coli isogenic strains, aph(3′)-II [3] [µg/mL] | Geometric Mean MIC values, E. coli isogenic strains, aac(6′)-Ib [4] [µg/mL] | Geometric Mean MIC values, E. coli isogenic strains, empty vector [5] [µg/mL] | Geometric Mean MIC values, E. coli isogenic strains, armA [6] [µg/mL] | Geometric Mean MIC values, E. coli isogenic strains, ant(4′)-Ia [7] [µg/mL] | Geometric Mean MIC values, E. coli Δefflux [8] [µg/mL] | Geometric Mean MIC values, E. coli efflux parent (E. coli efflux parent) [µg/mL] | Geometric Mean MIC values, E. coli ATCC 25922 (E. coli ATCC 25922) [µg/mL]
1 | NCC1OC(OC2C(CO)OC(OC3C(O)C(N)CC(N)C3OC3OC(CN)C(F)(F)C(O)C3N)C2O)C(N)C(O)C1O (centres unmarked) | >64 | 64 | 4 | 16 | 1.4 | 4 | 1 | 1 | 2 | 2
2 | CCC(N)C1CCC(N)C(OC2C(N)CC(N)C(O)C2OC2OC(CO)C(OC3OC(CN)C(O)C(O)C3N)C2O)O1 (centres unmarked) [drawing 860] | >64 | >64 | 1 | 1.3 | 1 | 3.2 | 1 | 0.71 | 1.4 | 2
3 | NCC1OC(OC2C(CO)OC(OC3C(O)C(N)CC(N)C3OC3OC(CN)C(O)C(F)C3O)C2O)C(N)C(O)C1O (centres unmarked) [drawing 867] | 64 | >64 | 1.4 | >64 | 2 | 2.8 | 64 | 1 | 1.4 | 2
4 | NCC1OC(OC2C(N)CC(N)C(O)C2OC2OC(CO)C(OC3OC(CN)C(O)C(O)C3N)C2O)C(N)CC1O (centres unmarked) [drawing 864, reference compound] | 38 | >64 | 0.25 | 2 | 0.32 | 0.6 | 2 | 0.25 | 0.63 | 0.71
5 | NCC1CCC(N)C(OC2C(N)CC(N)C(O)C2OC2OC(CO)C(OC3OC(CN)C(O)C(O)C3N)C2O)O1 (centres unmarked) [drawing 856, reference compound] | 64 | >64 | 0.35 | 5.7 | 0.61 | 0.74 | 0.5 | 0.87 | 0.87 | 1.1
